Measured values reported in patent publication US5747462A, “Pharmaceutically active compounds and their use” (priority 1995, dated 1998).

Experiment: quantitative evaluation of intradermoplantar edema induced by lambda-carrageenan in guinea pigs (plethysmometer)
Conditions: for anti-inflammatory effect with respect to the carrageenan standard (S2): p<0.000, one way variance analysis and Tukey's multiple comparisons, at the experimental doses used
Procedure: This inoculation initiates an inflammatory process defined as the standard inflammatory constant of all the preclinical trials.
The comparative evaluation is performed by measuring with a plethysmometer the change in volume in milliliters of mercury and expressing the results in absolute volume (ml) and relative percentage (°/l or %) values versus the variable of time in hours (h).
The inflammatory response is induced by inoculating carrageenan into the animal's plantar pad, and the change in volume is measured with a plethysmometer in milliliters of mercury.
The technique employed is adapted to a biological model of guinea pigs, and evaluates the intensity of the edema as the increase or decrease in the proportion of relative inflamed volume. The equation which describes this variable is: postinoculation volume minus preinoculation control volume divided by preinoculation control volume.
The method of measurement is composed of three basic steps:
Measurement of the clinical parameter inflammation volume obtained on inoculating an inflammatory noxa. This procedure constitutes the inflammatory standard (inflammatory control).
Measurement of the change in the clinical parameter inflammation volume by applying to the inflammatory standard a drug recognized as anti-inflammatory reference substance (anti-inflammatory control).
Measurement of the change in the clinical parameter inflammation volume by applying to the inflammatory standard an anti-inflammatory composition and/or subcompositions (invention).
Standard (S2): 0.1 ml of the pharmaceutically acceptable injectable formulation containing 1% of lambda-carrageenan, prepared according to standard processes in sterile water for injections and administered via the intradermoplantar route. Single dose of carrageenan between 3.6 and 3.9 mg/kg animal body weight.
Reference substance (P1): 2.0 ml of the pharmaceutically acceptable injectable formulation containing 6.25% of acetylsalicylic acid (ASA), prepared according to standard processes in sterile water for injections and administered intraperitoneally. Single dose of ASA, between 418.1 and 490.2 mg/kg animal body weight.

SMILES: O=C(O)Cc1ccccc1Nc1c(Cl)cccc1Cl [DICLO (P2), diclofenac sodium]
- % Inflammation (0 h, diclofenac sodium 94.8-105.8 mg/kg i.p. single dose): 00.000%
- % Inflammation (1 h, diclofenac sodium 94.8-105.8 mg/kg i.p. single dose): 12.500%
- % Inflammation (2 h, diclofenac sodium 94.8-105.8 mg/kg i.p. single dose): 12.600%
- % Inflammation (5 h, diclofenac sodium 94.8-105.8 mg/kg i.p. single dose): 11.400%
- % Inflammation (6 h, diclofenac sodium 94.8-105.8 mg/kg i.p. single dose): 12.300%
- anti-inflammatory effect with respect to the carrageenan standard (S2): significant anti-inflammatory effect

SMILES: CC(=O)Oc1ccccc1C(=O)O [ASA (P1), acetylsalicylic acid]
- % Inflammation (0 h, ASA 418.1-490.2 mg/kg i.p. single dose): 00.000%
- % Inflammation (1 h, ASA 418.1-490.2 mg/kg i.p. single dose): 05.620%
- % Inflammation (2 h, ASA 418.1-490.2 mg/kg i.p. single dose): 13.700%
- % Inflammation (3 h, ASA 418.1-490.2 mg/kg i.p. single dose): 10.450%
- % Inflammation (4 h, ASA 418.1-490.2 mg/kg i.p. single dose): 12.020%
- % Inflammation (5 h, ASA 418.1-490.2 mg/kg i.p. single dose): 12.100%
- % Inflammation (6 h, ASA 418.1-490.2 mg/kg i.p. single dose): 10.450%
- % Inflammation (7 h, ASA 418.1-490.2 mg/kg i.p. single dose): 09.810%
- anti-inflammatory effect with respect to the carrageenan standard (S2): significant anti-inflammatory effect
